Literature values in PMC11054271, “ABCG2 Transports the Flukicide Nitroxynil and Affects Its Biodistribution and Secretion into Milk” (Pharmaceutics, 2024).

Test system: Abcg2
Parameters: method as in PMID 34062171
Conditions: mice; cited from earlier work

Cc1c(Cl)cccc1Nc1ccccc1C(=O)O [tolfenamic acid]
Testis accumulation, fold higher in Abcg2−/− compared to wild-type: ~3 fold
